ChEMBL document CHEMBL5325501, “Discovery of BWA-522, a First-in-Class and Orally Bioavailable PROTAC Degrader of the Androgen Receptor Targeting N-Terminal Domain for the Treatment of Prostate Cancer” (J Med Chem, 2023)
The source made the active and inactive calls. No cut-off for these calls is given here.

Legend:
[1] = Cmax in beagle dog at 1 mg/kg, iv measured by LC-MS/MS analysis; format: ADME, organism-based, Canis lupus familiaris; set-up: dose 1 mg/kg, route iv; details: in vivo
[2] = AUC(0 to t) in beagle dog at 1 mg/kg, iv measured by LC-MS/MS analysis; format: ADME, organism-based, Canis lupus familiaris; set-up: dose 1 mg/kg, route iv; details: in vivo
[3] = Metabolic stability in human liver microsomes assessed as half-life at 2 uM preincubated for 10 mins in the presence of NADPH followed by compound addition and measured after 60 mins by LC-MS/MS analysis; format: ADME, Microsome
[4] = Metabolic stability in human liver microsomes assessed as intrinsic clearance at 2 uM preincubated for 10 mins in the presence of NADPH followed by compound addition and measured per mg protein after 60 mins by LC-MS/MS analysis; format: ADME, Microsome; details: read-out: CLH
[5] = Stability in mouse plasma assessed as parent compound remaining measured immediately by LC-MS/MS analysis; format: ADME, cell-free; details: read-out: Stability
[6] = Stability in mouse plasma assessed as parent compound remaining measured after 45 mins by LC-MS/MS analysis; format: ADME, cell-free; details: read-out: Stability
[7] = Stability in mouse plasma assessed as parent compound remaining measured after 60 mins by LC-MS/MS analysis; format: ADME, cell-free; details: read-out: Stability
[8] = Stability in mouse plasma assessed as parent compound remaining measured after 120 mins by LC-MS/MS analysis; format: ADME, cell-free; details: read-out: Stability
[9] = Stability in human plasma assessed as parent compound remaining measured after 45 mins by LC-MS/MS analysis; format: ADME, cell-free; details: read-out: Stability
[10] = Stability in human plasma assessed as parent compound remaining measured after 60 mins by LC-MS/MS analysis; format: ADME, cell-free; details: read-out: Stability
LNCaP [11] = test: Antiproliferative activity against human LNCaP cells assessed as reduction in cell viability incubated for 6 days by CCK-8 assay; format: functional, cell-based; details: 144 h
LNCaP [12] = test: Antiproliferative activity against AR-dependent human LNCaP cells assessed as reduction in cell viability at 3 to 10 uM incubated for 6 days by CCK-8 assay; format: functional, cell-based; details: dose 3-10 µM, time 6.0 day
VCaP [13] = test: Antiproliferative activity against AR-dependent human VCaP cells assessed as reduction in cell viability at 3 to 10 uM incubated for 6 days by CCK-8 assay; format: functional, cell-based; details: dose 3-10 µM, time 6.0 day
CWR22R = test: Antiproliferative activity against AR-dependent human 22Rv1 cells assessed as reduction in cell viability at 3 to 10 uM incubated for 6 days by CCK-8 assay; format: functional, cell-based; details: dose 3-10 µM, time 6.0 day
DU-145 = test: Antiproliferative activity against AR-independent human DU-145 cells assessed as reduction in cell viability at 10 uM incubated for 6 days by CCK-8 assay; format: functional, cell-based; details: time 6.0 day
RWPE-1 = test: Cytotoxicity against human RWPE-1 cells assessed as reduction in cell viability incubated for 6 days by CCK8 assay; format: toxicity, cell-based; details: rwpe-1, 144 h, time 6 day
VCaP [14] = test: Downregulation of TMPRSS2 protein level in human VCaP cells incubated for 48 hrs by Western blot analysis; format: functional, cell-based; details: dose 1-10 µM
VCaP [15] = test: Downregulation of PSA protein level in human VCaP cells incubated for 48 hrs by Western blot analysis; format: functional, cell-based; details: dose 1-10 µM
[16] = Downregulation of TMPRSS2 protein level in human LNCaP cells at 10 uM incubated for 48 hrs by Western blot analysis relative to control; format: functional
[17] = Downregulation of FKBP51 protein level in human LNCaP cells at 10 uM incubated for 48 hrs by Western blot analysis relative to control; format: functional
[18] = Downregulation of TMPRSS2 protein level in human VCaP cells at 10 uM incubated for 48 hrs by Western blot analysis relative to control; format: functional
[19] = Downregulation of FKBP51 protein level in human VCaP cells at 10 uM incubated for 48 hrs by Western blot analysis relative to control; format: functional
[20] = Downregulation of PSA protein level in human VCaP cells at 10 uM incubated for 48 hrs by Western blot analysis relative to control; format: functional
LNCaP [21] = test: Induction of apoptosis in human LNCaP cells assessed as PARP-1 cleavage at 5 to 10 uM incubated for 48 hrs by Western blot analysis; format: functional, cell-based; details: dose 5-10 µM
LNCaP [22] = test: Induction of apoptosis in human LNCaP cells assessed as caspase-3 cleavage at 5 to 10 uM incubated for 48 hrs by Western blot analysis; format: functional, cell-based; details: dose 5-10 µM
VCaP [23] = test: Induction of apoptosis in human VCaP cells assessed as PARP-1 cleavage at 5 to 10 uM incubated for 48 hrs by Western blot analysis; format: functional, cell-based; details: dose 5-10 µM
VCaP [24] = test: Induction of apoptosis in human VCaP cells assessed as caspase-3 cleavage at 5 to 10 uM incubated for 48 hrs by Western blot analysis; format: functional, cell-based; details: dose 5-10 µM
LNCaP [25] = test: Antitumor activity against human LNCaP cells xenografted in NOD SCID mouse assessed as inhibition of tumor volume at 20 to 60 mg/kg, po administered daily for 4 weeks; format: functional, organism-based; details: dose 20-60 mg/kg
LNCaP [26] = test: Antitumor activity against human LNCaP cells xenografted in NOD SCID mouse assessed as tumor growth inhibition at 20 mg/kg, po administered daily for 4 weeks relative to control; format: functional; details: 672 h, read-out: TGI
LNCaP [27] = test: Antitumor activity against human LNCaP cells xenografted in NOD SCID mouse assessed as tumor growth inhibition at 60 mg/kg, po administered daily for 4 weeks relative to control; format: functional; details: 672 h, read-out: TGI
[28] = Toxicity in ICR mouse assessed as body weight loss at 20 to 60 mg/kg, po administered daily for 14 days; format: organism-based; details: in vivo, 336 h, dose 20-60 mg/kg, time 14 day
[29] = Toxicity in ICR mouse assessed as liver damage at 20 to 60 mg/kg, po administered daily for 14 days; format: organism-based; details: in vivo, 336 h, dose 20-60 mg/kg, time 14 day
[30] = Toxicity in ICR mouse assessed as lung damage at 20 to 60 mg/kg, po administered daily for 14 days; format: organism-based; details: in vivo, 336 h, dose 20-60 mg/kg, time 14 day
[31] = Toxicity in ICR mouse assessed as spleen damage at 20 to 60 mg/kg, po administered daily for 14 days; format: organism-based; details: in vivo, 336 h, dose 20-60 mg/kg, time 14 day

SMILES: CC(C)(c1ccc(OCC2CCN(CC3CCN(c4ccc5c(c4)C(=O)N(C4CCC(=O)NC4=O)C5=O)CC3)CC2)cc1)c1ccc(OC[C@H](O)CCl)cc1 (some centres undefined)
- Cmax [1]: 150 ng/mL
- AUCt [2]: 919 ng·h/mL
- half-life at 2 µM [3]: 187 min
- microsomal CLint at 2 µM [4]: 7.4 µL/min/mg
- remaining at 0 min [5]: 100%
- remaining at 0.75 h [6]: 102%
- remaining at 1 h [7]: 90.8%
- remaining at 2 h [8]: 91.2%
- remaining at 0.75 h [9]: 93.9%
- remaining at 1 h [10]: 91.9%
- IC50 (LNCaP [11]): 1070 nM
- Activity (LNCaP [12]): Active
- Activity (VCaP [13]): Active
- Activity (CWR22R): Active
- Activity (DU-145): inactive
- Activity (RWPE-1): Non-Toxic
- Activity (VCaP [14]): Dose-Dependent Effect
- Activity (VCaP [15]): Dose-Dependent Effect
- Activity [16]: ~45%
- Activity [17]: ~25%
- Activity [18]: ~40%
- Activity [19]: ~25%
- Activity [20]: >80%
- Activity (LNCaP [21]): Active
- Activity (LNCaP [22]): Active
- Activity (VCaP [23]): Active
- Activity (VCaP [24]): Active
- Activity (LNCaP [25]): Active
- inhibition in vivo at 20 mg/kg (LNCaP [26]): 26%
- inhibition in vivo at 60 mg/kg (LNCaP [27]): 76%
- Activity [28]: Non-Toxic
- Activity [29]: Non-Toxic
- Activity [30]: Non-Toxic
- Activity [31]: Non-Toxic
